Results reported in patent publication US20070208087A1, “Compounds, compositions and methods for the treatment of inflammatory diseases” (priority 2001, published 2007).
Values joined by “and” are separate entries in the source; they are usually repeats but may differ in a detail not shown here. Identical values can stand only once.

How the values were obtained:
Format in all cases: cell-based
[1] = system: EOC 13.31 microglial cells; test: NO release inhibition screen in LPS/IFNγ stimulated microglia, Griess reaction at 48 hours (Example 7)
Experimental: In this experiment, additional bis- and tris-dihydroxyaryl compounds were screened for their ability to inhibit nitric oxide release from microglial cells. Microglial cells stimulated with LPS/IFNγ release nitric oxide. […] This is a continuation of screening experiments. EOC 13.31 microglial cells were plated into 96 well plates. At 24 hours and at confluency, cells were treated with 10 μg/ml LPS/10 ng/ml IFNγ+50 uM bis- and tris-dihydroxyaryl compounds.

[2] = system: EOC 13.31 microglia cells; test: NO release inhibition in LPS/IFNγ stimulated microglia, concurrent treatment, Griess reaction at 24 hours (Example 6); conditions: 50 μM; for OD Values: Griess; for OD Values / NO release: single replicates
Experimental: The purpose of this experiment was to screen compounds 3, 4, 21, 26, 51, 52, 66, and 78 for their ability to inhibit Nitric oxide release from microglia. […] EOC 13.31 microglia cells were plated into 96 well plates for 24 hours. Confluent cells were treated with 50 μM of the bis- and tris-dihydroxyaryl compounds either with or without stimulation at 1 pg/ml LPS, and 1 ng/ml IFNγ. NO release was measured at 24 hours using the Griess reaction which is a spectrophotometric measure of NO release (reagents from Promega).

microglia = test: Ranking of NO release inhibition (Example 12); conditions: ranking table
From the text: The bis- and tris-dihydroxyaryl compounds were ranked in order of effectiveness for the inhibition of NO release as set out in Table 8.

Microglial cells = test: Dose response inhibition of NO release from microglia, 0.75-200 μM (Example 8); conditions: for Avg % Inhibition / μM NO release Avg / % inhibition / OD values (printed under head μM NO release) / μM NO release: 48 hours; for % inhibition / OD values (printed under head μM NO release) / μM NO release: single replicates
Experimental: This experiment was designed to determine dose response inhibition of NO release from microglia by bis- and tris-dihydroxyaryl compounds when stimulated with LPS/IFNγ. […] This experiment is designed to determine a dose response for various bis- and tris-dihydroxyaryl compounds. Microglial cells were plated into 96 well plates at 1×10^5 cells/ml. […] The doses tested were: 0.75 μM, 1.56 μM, 3.125 μM, 6.25 μM, 12.5 μM, 25 μM, 50 μM, 100 μM and 200 μM. Nitric oxide release was measured after 48 hours using the Griess reaction.

[3] = system: EOC 13.31 microglia cells; test: Inhibition of NO release from microglia following 24 hours pretreatment (Example 10); conditions: 50 uM pretreatment 24 hours, then LPS/IFNγ 48 hours
Method in brief: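 Confluent EOC 13.31 cells pretreated 24 hours with 50 μM compound (from 10 mM DMSO stock), then stimulated with 10 μg/ml LPS plus 10 ng/ml IFNγ without media change. After a further 48 hours, NO release was measured by Griess Reaction.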

[4] = 50 uM + 10 μg/ml LPS/10 ng/ml IFNγ, 48 hours
[5] = 50 uM + 10 μg/ml LPS/10 ng/ml IFNγ, 48 hours, single replicates
[6] = Compound Only (without LPS/IFNγ), 24 hours

SMILES: Oc1ccc(Cc2ccc(O)c(O)c2)cc1O [Compound 3, 3,4,3′,4′-tetrahydroxydiphenylmethane]
- Avg. % Inhibition [1, 4]: 96.40%
- μM NO release Avg [1, 4]: 1.000 µM
- OD values (printed under head μM NO release) [1, 5]: 0.064 and 0.055 and 0.062
- μM NO release [1, 5]: 1.393 µM and 0.429 µM and 1.179 µM
- % inhibition ([1]; 50 uM + 10 μg/ml LPS/10 ng/ml IFNγ, 48 hours, single replicates, 50 µM): 98.46% and 95.75% and 94.98%
- inhibition of NO release, in words ([1]; 50 uM, LPS/IFNγ stimulated microglia): effective inhibitors of NO release
- inhibition of NO release, in words ([2]; LPS/IFNγ stimulated microglial cells): very effective inhibitors of NO release
- % inhibition of NO release ([2]; Compound + LPS/IFNγ, 24 hours): 48.8%
- NO release, Avg ([2]; Compound + LPS/IFNγ, 24 hours): 9.5299 µM
- OD Values ([2]; Compound + LPS/IFNγ, 24 hours): 0.094 and 0.137 and 0.145
- NO release ([2]; Compound + LPS/IFNγ, 24 hours): 6.0450 µM and 10.8259 µM and 11.7188 µM
- NO release, Avg [2, 6]: 1.0417 µM
- OD Values [2, 6]: 0.053 (2×) and 0.054
- NO release [2, 6]: 1.0000 uM (2×) and 1.1250 uM
- % Inhibition (summary of inhibition of NO release) ([2]; Table 2 summary, LPS/IFNγ, 24 hours): 48.8%
- % Inhibition at 50 μM (NO release) (microglia): 30%
- Avg % Inhibition (Microglial cells; dose 0.75 μM): −8.947%
- μM NO release Avg (Microglial cells; dose 0.75 μM): 21.563 µM
- % inhibition (Microglial cells; dose 0.75 μM): −3.42% and −6.58% and −16.84%
- OD values (printed under head μM NO release) (Microglial cells; dose 0.75 μM): 0.2 and 0.183 and 0.187
- μM NO release (Microglial cells; dose 0.75 μM): 23.125 µM and 20.469 µM and 21.094 µM
- μM NO release Avg (Microglial cells; dose 1.56 μM): 19.792 µM
- % inhibition (Microglial cells; dose 1.56 μM): 3.68% (2×) and −7.37%
- OD values (printed under head μM NO release) (Microglial cells; dose 1.56 μM): 0.188 and 0.174 (2×)
- μM NO release (Microglial cells; dose 1.56 μM): 21.250 μM and 19.063 μM (2×)
- Avg % Inhibition (Microglial cells; dose 3.125 μM): 0.789%
- μM NO release Avg (Microglial cells; dose 3.125 μM): 19.635 µM
- % inhibition (Microglial cells; dose 3.125 μM): 2.89% and 5.26% and −5.79%
- OD values (printed under head μM NO release) (Microglial cells; dose 3.125 μM): 0.186 and 0.175 and 0.172
- μM NO release (Microglial cells; dose 3.125 μM): 20.938 µM and 19.219 µM and 18.750 µM
- Avg % Inhibition (Microglial cells; dose 6.25 μM): 7.368%
- μM NO release Avg (Microglial cells; dose 6.25 μM): 18.333 µM
- % inhibition (Microglial cells; dose 6.25 μM): 10.79% and 10.00% and 1.32%
- OD values (printed under head μM NO release) (Microglial cells; dose 6.25 μM): 0.177 and 0.165 and 0.166
- μM NO release (Microglial cells; dose 6.25 μM): 19.531 µM and 17.656 µM and 17.813 µM
- Avg % Inhibition (Microglial cells; dose 12.5 μM): 6.579%
- μM NO release Avg (Microglial cells; dose 12.5 μM): 18.490 µM
- % inhibition (Microglial cells; dose 12.5 μM): 10.00% and 2.89% and 6.84%
- OD values (printed under head μM NO release) (Microglial cells; dose 12.5 μM): 0.17 and 0.166 and 0.175
- μM NO release (Microglial cells; dose 12.5 μM): 18.438 µM and 17.813 µM and 19.219 µM
- Avg % Inhibition (Microglial cells; dose 25 μM): 14.737%
- μM NO release Avg (Microglial cells; dose 25 μM): 16.875 µM
- % inhibition (Microglial cells; dose 25 μM): 22.63% and 10.00% and 11.58%
- OD values (printed under head μM NO release) (Microglial cells; dose 25 μM): 0.164 and 0.15 and 0.166
- μM NO release (Microglial cells; dose 25 μM): 17.500 µM and 15.313 µM and 17.813 µM
- Avg % Inhibition (Microglial cells; dose 50 μM): 47.368%
- μM NO release Avg (Microglial cells; dose 50 μM): 10.417 µM
- % inhibition (Microglial cells; dose 50 μM): 48.68% and 46.32% and 47.11%
- OD values (printed under head μM NO release) (Microglial cells; dose 50 μM): 0.119 and 0.117 and 0.12
- μM NO release (Microglial cells; dose 50 μM): 10.469 µM and 10.156 µM and 10.625 µM
- Avg % Inhibition (Microglial cells; dose 100 μM): 62.368%
- μM NO release Avg (Microglial cells; dose 100 μM): 7.448 µM
- % inhibition (Microglial cells; dose 100 μM): 64.47% and 60.53% and 62.11%
- OD values (printed under head μM NO release) (Microglial cells; dose 100 μM): 0.1 and 0.097 and 0.102
- μM NO release (Microglial cells; dose 100 μM): 7.500 µM and 7.031 µM and 7.813 µM
- Avg % Inhibition (Microglial cells; dose 200 μM): 67% and 67.105%
- μM NO release Avg (Microglial cells; dose 200 μM): 6.510 µM
- % inhibition (Microglial cells; dose 200 μM): 68.42% and 66.84% and 66.05%
- OD values (printed under head μM NO release) (Microglial cells; dose 200 μM): 0.095 and 0.092 and 0.094
- μM NO release (Microglial cells; dose 200 μM): 6.719 µM and 6.250 µM and 6.563 µM
- inhibition of NO release, in words (Microglial cells; dose response 0.75-200 μM): effective inhibitors of NO release
- Avg % Inhibition [3]: 79.87%
- % inhibition ([3]; single replicates): 86.74% and 69.63% and 83.24%
- OD values (printed under head μM NO release) ([3]; single replicates): 0.206 and 0.163 and 0.153
- μM NO release ([3]; single replicates): 6.000 µM and 3.313 µM and 2.621 µM
